# Source: ChEMBL document CHEMBL4402594, “Interrogating the Lactate Dehydrogenase Tetramerization Site Using (Stapled) Peptides” (J Med Chem, 2020)
# Calls of active or inactive are those of the source. No cut-off for these calls is given here. Peptide text beside a SMILES is read from it.
# Tests used:
# [1] = biological target: T1, L-lactate dehydrogenase B chain (Homo sapiens, UniProt P07195); test: Binding affinity to full length human N-terminal His6-tagged LDH-H expressed in Escherichia coli Rosetta (DE3) assessed as saturation transfer at N-terminal residues at 800 uM phosphate buffer at pH 7 by 2D NMR-TOCSY analysis
# Target sequence in this assay (P07195 2-334 limits assumed): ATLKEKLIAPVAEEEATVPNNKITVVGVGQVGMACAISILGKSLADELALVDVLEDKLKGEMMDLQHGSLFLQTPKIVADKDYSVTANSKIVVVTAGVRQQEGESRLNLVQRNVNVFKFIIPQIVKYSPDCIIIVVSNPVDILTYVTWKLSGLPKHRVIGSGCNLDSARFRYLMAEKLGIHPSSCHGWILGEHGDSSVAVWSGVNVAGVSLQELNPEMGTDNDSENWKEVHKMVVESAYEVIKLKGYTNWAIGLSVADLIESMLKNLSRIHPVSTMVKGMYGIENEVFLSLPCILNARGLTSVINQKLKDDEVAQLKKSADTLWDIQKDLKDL
# [2] = biological target: T1, L-lactate dehydrogenase B chain; test: Inhibition of recombinant full length human His-tagged LDH-1 (1 to 322 residues) expressed in Escherichia coli at 800 uM by WaterLOGSY NMR analysis
# Target sequence in this assay (P07195 whole entry, the tested form may be a part): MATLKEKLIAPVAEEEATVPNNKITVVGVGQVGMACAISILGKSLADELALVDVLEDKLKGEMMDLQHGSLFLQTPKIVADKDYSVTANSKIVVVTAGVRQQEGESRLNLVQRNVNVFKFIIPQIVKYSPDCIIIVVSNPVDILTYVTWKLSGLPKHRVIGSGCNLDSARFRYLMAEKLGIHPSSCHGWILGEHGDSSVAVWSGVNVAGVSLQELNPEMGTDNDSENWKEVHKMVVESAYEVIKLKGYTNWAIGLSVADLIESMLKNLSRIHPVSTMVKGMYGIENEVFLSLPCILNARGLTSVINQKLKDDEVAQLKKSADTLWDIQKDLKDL
# [3] = biological target: T1, L-lactate dehydrogenase B chain; test: Binding affinity to full length human N-terminal His6-tagged LDH-H expressed in Escherichia coli Rosetta (DE3) assessed as saturation transfer stemming at 800 uM in sodium phosphate buffer at pH 7.6 by WaterLOGSY NMR analysis
# Target sequence in this assay (P07195 2-334 limits assumed): as the sequence (P07195 2-334 limits assumed) above
# [4] = biological target: T1, L-lactate dehydrogenase B chain; test: Binding affinity to full length human N-terminal His6-tagged LDH-H expressed in Escherichia coli Rosetta (DE3) assessed as saturation transfer at C-terminal residues at 800 uM phosphate buffer at pH 7 by 2D NMR-TOCSY analysis
# Target sequence in this assay (P07195 2-334 limits assumed): as above
# [5] = biological target: T1, L-lactate dehydrogenase B chain; test: Binding affinity to recombinant full length human His-tagged LDH-1 (1 to 322 residues) expressed in Escherichia coli at 800 uM by WaterLOGSY NMR analysis
# Target sequence in this assay (P07195 whole entry, the tested form may be a part): as the sequence (P07195 whole entry, the tested form may be a part) above
# [6] = biological target: T1, L-lactate dehydrogenase B chain; test: Binding affinity to recombinant full length human His-tagged LDH-1 (1 to 322 residues) expressed in Escherichia coli by WaterLOGSY NMR analysis
# Target sequence in this assay (P07195 whole entry, the tested form may be a part): as above
# [7] = biological target: T1, L-lactate dehydrogenase B chain; test: Binding affinity to full length human N-terminal His6-tagged LDH-H expressed in Escherichia coli Rosetta (DE3) measured after 5 mins by Red-NHS fluorescent dye based microscale thermophoresis analysis
# Target sequence in this assay (P07195 whole entry, the tested form may be a part): as above
# [8] = biological target: T2, L-lactate dehydrogenase A chain (Homo sapiens, UniProt P00338); test: Binding affinity to human N-terminal His6-tagged LDH-5 expressed in Escherichia coli Rosetta (DE3) assessed as induction of thermal destabilization by measuring change in melting temperature at 400 uM by nano differential scanning fluorimetry analysis
# [9] = biological target: T2, L-lactate dehydrogenase A chain; test: Binding affinity to truncated N-terminal His6-tagged human LDH-5 expressed in Escherichia coli Rosetta (DE3) assessed as induction of protein disruption by interacting with tetramerization site by Red-NHS fluorescence dye based microscale thermophoresis analysis
# [10] = biological target: T2, L-lactate dehydrogenase A chain; test: Binding affinity to human N-terminal His6-tagged human LDH-5 expressed in Escherichia coli Rosetta (DE3) assessed as induction of protein disruption by interacting with tetramerization site by Red-NHS fluorescence dye based microscale thermophoresis analysis
# [11] = biological target: T1, L-lactate dehydrogenase B chain; test: Binding affinity to recombinant full length human His-tagged LDH-1 (1 to 322 residues) expressed in Escherichia coli assessed as induction of thermal destabilization at 400 uM by nano differential scanning fluorimetry analysis
# Target sequence in this assay (P07195 2-334 limits assumed): as the sequence (P07195 2-334 limits assumed) above
# [12] = biological target: T2, L-lactate dehydrogenase A chain; test: Binding affinity to truncated human N-terminal His6-tagged LDH-5 expressed in Escherichia coli Rosetta (DE3) assessed as induction of thermal destabilization by measuring melting temperature at 400 uM by nano differential scanning fluorimetry analysis
# [13] = biological target: L-lactate dehydrogenase A chain (Oryctolagus cuniculus) (UniProt P13491); test: Binding affinity to rabbit LDH-5 assessed as acid-induced dimerization by measuring fluorescence recovery at 0.75 uM to 400 uM pH 7.6 by nano differential scanning fluorimetry analysis
# [14] = biological target: T2, L-lactate dehydrogenase A chain; test: Binding affinity to human N-terminal His6-tagged LDH-5 expressed in Escherichia coli Rosetta (DE3) assessed as induction of thermal destabilization by measuring melting temperature at 400 uM by nano differential scanning fluorimetry analysis (reference value: 66 degree C)
# [15] = biological target: T2, L-lactate dehydrogenase A chain; test: Binding affinity to human N-terminal His6-tagged LDH-5 expressed in Escherichia coli Rosetta (DE3) assessed as induction of thermal destabilization at 400 uM by nano differential scanning fluorimetry analysis
# [16] = biological target: T1, L-lactate dehydrogenase B chain; test: Binding affinity to recombinant full length human His-tagged LDH-1 (1 to 322 residues) expressed in Escherichia coli assessed as induction of thermal destabilization by measuring change in melting temperature at 400 uM by nano differential scanning fluorimetry analysis
# Target sequence in this assay (P07195 2-334 limits assumed): as above
Activity [1],inhibition (INH) [2],Activity [3],Activity [4],Activity [5],Activity [6],Kd [7] [µM],ΔTm [8] [°C],Activity [9],EC50 [10] [µM],Activity [11],Activity [12],Activity [13],Tm [14] [°C],Activity [15],ΔTm [16] [°C],Compound
Active,Not Active,Active,Active,Not Active,Not Active,1780,–,–,–,–,–,–,–,–,–,H-ATLKEKLIAPVAEEEATVP-NH2
–,–,–,–,–,–,–,-5,inactive,172,Active,inactive,Active,61,Active,-1.5,"CC[C@H](C)[C@H](NC(=O)[C@H](CC(C)C)NC(=O)[C@H](CCCCN)NC(=O)[C@@H]1CSc2c(F)c(F)c(c(F)c2F)SC[C@H](N)C(=O)N[C@@H]([C@@H](C)O)C(=O)N[C@@H](CC(C)C)C(=O)N[C@@H](CCCCN)C(=O)N1)C(N)=O (HELM PEPTIDE1{C.T.L.K.C.K.L.I.[am]}|CHEM1{[Fc1c(F)c([*:2])c(F)c(F)c1[*:1]]}$PEPTIDE1,CHEM1,1:R3-1:R1|PEPTIDE1,CHEM1,5:R3-1:R2$$$V2.0)"
